From patent US20080014145A1, “ABALONE SETTLEMENT BIOASSAY FOR ANTI-SEIZURE SUBSTANCE SCREENING” (priority 2006, published 2008)

Columns and labels:
[1] = tested on: Haliotis rufescens larvae; details: cited from earlier work; for induction of larvae settlement: in vivo
[2] = tested on: chemically induced electrographic seizures; assay: Focal perfusion of rat cerebral cortex, chemically induced electrographic seizures; assay type: in vivo; details: focal perfusion of local areas of rat cerebral cortex; personal experience
[3] = tested on: larvae of Haliotis discus hannai; details: in vivo; cited from earlier work
Haliotis rufescens = details: in vivo; cited from earlier work
[4] = tested on: two different species of Haliotis; details: cited from earlier work
[5] = target: T1, thyroxine-binding globulin (Homo sapiens, UniProt P05543); details: cited from earlier work
T1 sequence (P05543 21-415): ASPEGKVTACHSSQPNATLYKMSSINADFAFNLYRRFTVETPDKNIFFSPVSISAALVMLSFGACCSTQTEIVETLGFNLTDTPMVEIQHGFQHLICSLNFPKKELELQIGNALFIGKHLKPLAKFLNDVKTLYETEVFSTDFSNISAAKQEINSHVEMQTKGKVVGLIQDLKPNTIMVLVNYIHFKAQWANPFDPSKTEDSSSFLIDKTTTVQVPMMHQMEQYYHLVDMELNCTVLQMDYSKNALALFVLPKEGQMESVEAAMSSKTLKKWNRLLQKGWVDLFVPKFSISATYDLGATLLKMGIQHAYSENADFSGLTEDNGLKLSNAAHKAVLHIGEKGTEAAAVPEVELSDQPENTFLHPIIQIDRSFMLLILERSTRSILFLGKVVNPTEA

## NCC(=O)O [glycine]
[1]
  induction of larvae settlement: can also induce Haliotis larvae settlement

## Br [Br^−]
[1]; replacing 25-75% of the Cl^− in seawater
  induction of settlement by anion replacement: may be induced

## NCCC(=O)O [β-alanine]
[1]
  induction of larvae settlement: can also induce Haliotis larvae settlement

## NCCc1c[nH]c2ccc(O)cc12 [serotonin]
[1]
  induction of larvae settlement: not able to induce

## NC(=O)CC[C@H](N)C(=O)O [L-glutamine]
[1]
  induction of larvae settlement: completely ineffective

## CCCC(=O)O [n-butyric acid]
[1]
  induction of larvae settlement: not able to induce

## NCCCCCC(=O)O [ε-amniocaproic acid]
[1]
  induction of larvae settlement: can also induce Haliotis larvae settlement

## [Cl-].[K+] [potassium chloride]
[2]
  effect on chemically induced electrographic seizures: may prevent or abort

## NC[C@H](O)c1ccc(O)c(O)c1 [norepinephrine]
[1]
  induction of larvae settlement: not able to induce

## CBr [bromomethane]
[3]
  induction in larvae: induction has been triggered

## N[C@@H](Cc1cc(I)c(Oc2cc(I)c(O)c(I)c2)c(I)c1)C(=O)O [L-thyroxine]
Haliotis rufescens
  induction of larval metamorphosis: could induce larval metamorphosis
[4]
  induction of larval metamorphosis: can induce larval metamorphosis

## N[C@@H](Cc1cc(I)c(Oc2ccc(O)c(I)c2)c(I)c1)C(=O)O [T3]
[4]
  induction of larval metamorphosis: can induce larval metamorphosis

## NCCc1c[nH]cn1 [histamine]
[1]
  induction of larvae settlement: not able to induce

## N[C@@H](CCC(=O)O)C(=O)O [L-glutamate]
[1]
  induction of larvae settlement: did slowly promote larval settlement

## CN1C(=O)CN=C(c2ccccc2)c2cc(Cl)ccc21 [diazepam]
[5]
  inhibition of thyroxine binding to thyroxine-binding globulin: competitively inhibit

## CCCCN [n-butylamine]
[1]
  induction of larvae settlement: not able to induce

## [Mg+2] [Mg^+2]
[1]
  induction of larvae settlement: not able to induce

## [K+] [potassium]
[1]; higher concentrations of K^+
  promotion of settlement: will not promote settlement
[1]; low concentration of K^+
  effect on settlement induction by GABA: inhibit induction by GABA
[1]; ˜10 mM above that found in seawater, within 72 hours
  larva attached: up to 90%

## [Na+] [Na^+]
[1]
  induction of larvae settlement: not able to induce

## NCCCC(=O)O [GABA, γ-aminobutyric acid]
[1]; 10^−6 molar in sea water
  larval attachment: 96-100%

## N[C@H](CCC(=O)O)C(=O)O [D-glutamate]
[1]
  induction of larvae settlement: completely ineffective

## NCCCCC(=O)O [δ-amniovaleric]
[1]
  induction of larvae settlement: can also induce Haliotis larvae settlement

## NCc1cc(=O)[nH]o1 [muscimol]
[1]
  induction of larvae settlement: can also induce Haliotis larvae settlement

## CNC[C@H](O)c1ccc(O)c(O)c1 [epinephrine]
[1]
  induction of larvae settlement: not able to induce
